Test results taken from paper PMC8976910, “Novel oxadiazole derivatives as potent inhibitors of α-amylase and α-glucosidase enzymes: Synthesis, in vitro evaluation, and molecular docking studies” (Iranian Journal of Basic Medical Sciences, 2021).
≈ marks a conversion by molar mass, not a printed value.

Columns and labels:
[1] = target: T1, porcine pancreatic amylase (Sus scrofa, UniProt P00690); experiment: In vitro alpha-amylase inhibitory activity (starch/DNS, 540 nm); assay type: biochemical; conditions: for % Inhibition (alpha-amylase): concentration not stated (test compounds 1–100 μg/ml); for IC50: porcine pancreatic amylase, pH 6.8, 25 °C, test compounds 1–100 μg/ml, ± SEM, read-out: IC50 µg/ml ± SEM (alpha-amylase inhibition) (converted)
T1 sequence (P00690 16-511): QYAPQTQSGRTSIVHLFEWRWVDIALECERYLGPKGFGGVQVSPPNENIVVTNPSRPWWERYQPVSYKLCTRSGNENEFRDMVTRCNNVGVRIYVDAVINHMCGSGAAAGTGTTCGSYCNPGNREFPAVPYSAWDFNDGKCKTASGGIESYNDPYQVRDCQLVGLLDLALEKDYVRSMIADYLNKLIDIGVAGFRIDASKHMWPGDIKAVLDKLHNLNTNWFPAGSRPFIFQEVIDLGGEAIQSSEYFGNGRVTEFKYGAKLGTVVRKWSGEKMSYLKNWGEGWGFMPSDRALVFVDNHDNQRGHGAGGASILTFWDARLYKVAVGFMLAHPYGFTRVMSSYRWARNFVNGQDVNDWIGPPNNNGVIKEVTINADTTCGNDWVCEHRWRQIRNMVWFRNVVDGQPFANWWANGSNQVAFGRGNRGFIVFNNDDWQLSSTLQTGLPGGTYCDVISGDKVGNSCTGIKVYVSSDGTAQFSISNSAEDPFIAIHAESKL
Protocol: To this reaction mixture, 1% starch solution was added (500 μl in 0.2 mM phosphate buffer, pH 6.8) and incubated for an additional 10 min. 1 ml of DNS (di-nitro-salicylic-acid) color reagent was added to arrest the reaction. The reaction mixture was boiled for 10 min and then brought to ambient temperature. The absorbance of the resulting mixture was measured at 540 nm and the inhibitory activity was calculated using the following formula.
% Inhibition =(Astandard -Asample)/Astandard× 100
The IC50 was calculated using non-linear regression plot of % inhibition versus concentrations with the help of GraphPad Prism, version 6.0.

α-glucosidase = experiment: In vitro alpha-glucosidase inhibitory activity (p-NPG, 400 nm); assay type: biochemical; conditions: for % Inhibition (alpha-glucosidase): concentration not stated (test compounds 1-100 μg/ml); for IC50 µg/ml ± SEM (alpha-glucosidase inhibition): p-NPG substrate, 37 °C, test compounds 1-100 μg/ml
Protocol: The α-glucosidase inhibitory activity was determined according to a previously reported method with slight modifications([19]). […] A 500 μl solution was prepared by adding 10 μl of test compounds (1-100 μg/ml) and 490 μl of phosphate buffer (pH 6.9). 250 μl of 5mM p-nitrophenyl α-d-glucopyranoside (p-NPG) were added to this reaction mixture and incubated for 10 min at 37 °C. […] The α-glucosidase inhibitory activity was calculated as a measure of p-nitrophenol released from p-NPG. […] The percentage inhibition was calculated using the following formula; % Inhibition = (^Astandard^- Asample) / ^Astandard × 100.

[2] = test system: 3T3 (mouse fibroblast) cells; experiment: MTT assay for cytotoxicity analysis; assay type: cell-based; conditions: for cytotoxic effects against 3T3 (mouse fibroblast) cells, in words: MTT, 1.875-30 µM; for inhibition at 1.875 µM / inhibition at 3.75 µM / inhibition at 7.5 µM / inhibition at 15 µM / inhibition at 30 µM: Mus musculus, NIH3T3, 48 h, 3T3 cells, 48 hr, read-out: % Growth Inhibition
Protocol: Cytotoxic activity of compounds was evaluated in 96-well flat-bottomed microplates by using the standard MTT (3-[4, 5-dimethylthiazole-2-yl]-2, 5-diphenyl-tetrazolium bromide) colorimetric assay ([34]). For this purpose, 3T3 (mouse fibroblast, ATCC # CRL-1658, Lot # 59049195) cells were cultured in Dulbecco’s Modified Eagle Medium, supplemented with 5% fetal bovine serum (FBS), 100 IU/ml penicillin, and 100 µg/ml streptomycin in 75 cm^2 flasks, and kept in a 5% CO2 incubator at 37 °C. Exponentially growing cells were harvested, counted with a hemocytometer, and diluted with a particular medium. Cell culture with concentration of 5x10^4 cells/ml was prepared and introduced (100 µl/well) into 96-well plates. After overnight incubation, the medium was removed and 200 µl of fresh medium was added with various oxadiazole concentrations (30 µM, 15 µM, 7.5 µM, 3.75 µM, and 1.875 µM). After 48 hr, 200 µl MTT (0.5 mg/ml) was added to each well and incubated further for 4 hr. Subsequently, 100 µl of DMSO was added to each well. The extent of MTT reduction to formazan within cells was calculated by measuring the absorbance at 540 nm, using a microplate reader (Spectra Max Plus, Molecular Devices, CA, USA). The cytotoxicity was recorded as concentration causing 50% growth inhibition (IC50) for 3T3 cells. The percent inhibition was calculated by using the following formula;
% Inhibition=100-((mean of O.D of test compound-mean of O.D of negative control)/ (mean of O.D of positive control - mean of O.D of negative control) *100).
The results (% inhibition) were processed by using SoftMax Pro software (Molecular Device, USA).

% Inhibition (alpha-amylase) [1]	IC50 [1]	% Inhibition (alpha-glucosidase) (α-glucosidase)	IC50 µg/ml ± SEM (alpha-glucosidase inhibition) (α-glucosidase)	melting point	Compound	cytotoxic effects against 3T3 (mouse fibroblast) cells, in words [2]	inhibition at 1.875 µM [2]	inhibition at 3.75 µM [2]	inhibition at 7.5 µM [2]	inhibition at 15 µM [2]	inhibition at 30 µM [2]
9.42%	1300 µM	97.2%	15.45 ± 0.20 µg/mL (≈ 69.2 µM)		OCCSc1nnc(-c2ccccn2)o1 [4a(a), 2-{[5-(pyridin-2-yl)-1,3,4-oxadiazol-2-yl]sulfanyl} ethan-1-ol]						
26%	831 µM		No effect		OCCSc1nnc(-c2cccnc2)o1 [4a(b), 2-{[5-(pyridin-3-yl)-1,3,4-oxadiazol-2-yl]sulfanyl} ethan-1-ol]						
3.21%	1770 µM	16.3%	299.11 ± 0.31 µg/mL (≈ 1340 µM)	180 °C	OCCSc1nnc(-c2ccncc2)o1 [4a(c), 2-{[5-(pyridin-4-yl)-1,3,4-oxadiazol-2-yl]sulfanyl} ethan-1-ol]						
56.41%	252 µM	98.14%	12.27 ± 0.41 µg/mL (≈ 51.5 µM)	165 to 170 °C	OCCSc1nnc(-c2ccccc2O)o1 [Compound 5a, 2-{5-[(2-hydroxyethyl)sulfanyl]-1,3,4-oxadiazol-2-yl} phenol]	negligible cytotoxic effects	3%	5%	12%	16%	26.2%
50.11%	272 µM	41.8%	62.01 ± 0.92 µg/mL (≈ 260 µM)		OCCSc1nnc(-c2ccc(O)cc2)o1 [Compound 5b, 4-{5-[(2-hydroxyethyl)sulfanyl]-1,3,4-oxadiazol-2-yl} phenol]						
49.41%	267 µM	40.04%	69.04 ± 0.27 µg/mL (≈ 269 µM)	165 °C	OCCSc1nnc(-c2ccccc2Cl)o1 [Compound 5c, 2-{[5-(2-chlorophenyl)-1,3,4-oxadiazol-2-yl]sulfanyl} ethan-1-ol]						
43.6%	298 µM	39.7%	73.61 ± 0.02 µg/mL (≈ 244 µM)	186 to 190 °C	OCCSc1nnc(-c2cccc(Br)c2)o1 [Compound 5d, 2-{[5-(3-bromophenyl)-1,3,4-oxadiazol-2-yl]sulfanyl} ethan-1-ol]						
40.2%	279 µM	40.2%	68.02 ± 0.43 µg/mL (≈ 195 µM)	170 °C	OCCSc1nnc(-c2cccc(I)c2)o1 [Compound 5e, 2-{[5-(3-iodophenyl)-1,3,4-oxadiazol-2-yl]sulfanyl} ethan-1-ol]						
19.04%	772 µM	9.04%	273.06 ± 0.04 µg/mL (≈ 1010 µM)	265 to 270 °C	OCCSc1nnc(-c2cc(O)c(O)c(O)c2)o1 [Compound 5f, 5-{5-[(2-hydroxyethyl)sulfanyl]-1,3,4-oxadiazol-2-yl} benzene-1,2,3-triol]						
92.16%	58.9 µM	36.16%	80.8 ± 0.52 µg/mL (≈ 364 µM)	207 to 210 °C	OCCSc1nnc(-c2ccccc2)o1 [Compound 5g, 2-[(5-phenyl-1,3,4-oxadiazol-2-yl)sulfanyl] ethan-1-ol]	negligible cytotoxic effects	~1.5%	3%	8%	10%	19.6%
		98.9%	11.47 ± 0.02 µg/mL (≈ 55.4 µM)		OCCN1C[C@H](O)[C@@H](O)[C@H](O)[C@H]1CO [Miglitol, reference compound]						
